≈ marks a conversion by molar mass, not a printed value. Read-outs that look alike come from different tables or passages of the source. Bounds are passed on as bounds.

Holding throughout (assay): Antibacterial activity (MIC), agar dilution
Holding throughout (format): cell-based
On the technique in general: In agar dilution, organisms are placed on agar that contains the substance at set levels.

One experiment concerns Aci. antitratus A-6. The settings on record: 20 h. From the text: (§1) The amount of bacteria inoculated was 10^4 cells per plate (10^6 cells per ml).
The next experiment has as its system E. coli NIHJ JC-2. The settings on record: Escherichia coli, NIHJJC2, 20 h.
From the text: as §1

For the next experiment, the system named is E. coli TK-111. The settings on record: Escherichia coli, TK111, 20 h.
From the text: as §1

A further experiment has as its system Ent. cloacae IID977. The settings on record: Enterobacter cloacae, IID977, 20 h.
From the text: as §1

Another experiment concerns Kl. pneumoniae Y-41. The settings on record: Klebsiella pneumoniae, Y41, 10^6 cells per ml, 37° C., 20 hours, read-out: MIC.
From the text: as §1

The test system of another experiment is Kl. pneumoniae Y-50. The settings on record: Klebsiella pneumoniae, Y50, 20 h, 10^6 cells per ml, 37° C., read-out: MIC.
From the text: as §1

The next experiment concerns Pro. mirabilis T-111. The settings on record: Proteus mirabilis, 37° C.
From the text: as §1

Another experiment deals with Pro. morganii T-216. The conditions noted are these: Morganella morganii, T216, 10^6 cells per ml, 37° C., 20 hours, read-out: MIC.
From the text: as §1

In another experiment the test system is Pro. vulgaris GN3027. The settings on record: Proteus vulgaris, GN3027, 20 h, Pro. vulgaris GN3027; 10^6 cells per ml; 37° C., 20 hours; read-out: MIC.
From the text: as §1

For the next experiment, the system named is Ps. aeruginosa IFO3445. The settings on record: Pseudomonas aeruginosa.
From the text: as §1

In a further experiment the test system is Ps. aeruginosa S-68. The conditions noted are these: Pseudomonas aeruginosa.
From the text: as §1

Another experiment has as its system St. aureus FDA209P. The conditions noted are these: Staphylococcus aureus, FDA209P, 20 h.
From the text: as §1

For a further experiment, the system named is E. coli TK-3*. The conditions noted are these: Escherichia coli, 20 h.
From the text: as §1
(§2) * Penicillinase-producing bacteria

Another experiment concerns Kl. pneumoniae Y-4*. The conditions noted are these: Klebsiella pneumoniae, 20 h, Kl. pneumoniae Y-4, penicillinase-producing; 10^6 cells per ml; read-out: MIC.
From the text: as §1, §2

A further experiment deals with Ps. aeruginosa GN3379*. The settings on record: Pseudomonas aeruginosa, Ps. aeruginosa GN3379, penicillinase-producing, 10^6 cells per ml.
From the text: as §1, §2

The test system of a further experiment is St. aureus F-137*. The settings on record: Staphylococcus aureus, 20 h.
From the text: as §1, §2

The subject of a further experiment is E. coli GN5482**. The conditions noted are these: Escherichia coli, 20 h; E. coli GN5482, cephalospolinase-producing; 10^6 cells per ml; read-out: MIC.
From the text: as §1
(§3) ** Cephalospolinase-producing bacteria

The subject of another experiment is Pro. vulgaris GN76**. The conditions noted are these: Proteus vulgaris.
From the text: as §1, §3

The next experiment concerns Ps. aeruginosa GN918**. The conditions noted are these: Pseudomonas aeruginosa, Ps. aeruginosa GN918, cephalospolinase-producing, 10^6 cells per ml.
From the text: as §1, §3

Where [1] appears, read: E. coli NIHJ JC-2, 10^6 cells per ml, 37° C., 20 hours, read-out: MIC.
Setting [2] is: E. coli TK-111, 10^6 cells per ml, 37° C., 20 hours, read-out: MIC.
[3] abbreviates: Ent. cloacae IID977, 10^6 cells per ml, 37° C., 20 hours, read-out: MIC.
Where [4] appears, read: T111, 10^6 cells per ml, 20 hours, read-out: MIC.
Where [5] appears, read: Ps. aeruginosa IFO3445, 10^6 cells per ml, 37° C., 20 hours, read-out: MIC.
Where [6] appears, read: S68, Ps. aeruginosa S-68, 10^6 cells per ml, 37° C., 20 hours, read-out: MIC.
Setting [7] is: St. aureus FDA209P, 10^6 cells per ml, 37° C., 20 hours, read-out: MIC.
Setting [8] is: St. aureus F-137, penicillinase-producing, 10^6 cells per ml, read-out: MIC.
[9] abbreviates: Aci. antitratus A-6, 10^6 cells per ml, 37° C., 20 hours, read-out: MIC.
Where [10] appears, read: 20 h, Pro. vulgaris GN76, cephalospolinase-producing, 10^6 cells per ml, read-out: MIC.

In general, MIC refers to the smallest concentration in the dilution series that meets the test's criterion for growth inhibition. For `CN(C)c1ccc(-c2cc(=O)c(C(=O)O)cn2-c2ccc(OS(=O)(=O)O)cc2)cc1`, the MIC in the experiment on Aci. antitratus A-6 was determined as 3.13 µg/mL (≈ 7.27 µM); in the experiment on E. coli NIHJ JC-2 (setting [1]), 1.56 µg/mL (≈ 3.62 µM); with E. coli TK-111 (setting [2]), 0.78 µg/mL (≈ 1.81 µM); in the experiment with Ent. cloacae IID977 (setting [3]), 12.5 µg/mL (≈ 29 µM); in the experiment with Kl. pneumoniae Y-41 it was 25 µg/mL (≈ 58.1 µM); in the experiment with Kl. pneumoniae Y-50 it was 3.13 µg/mL (≈ 7.27 µM). The MIC with Pro. mirabilis T-111 (setting [4]) came to 25 µg/mL (≈ 58.1 µM); with Pro. morganii T-216, 12.5 µg/mL (≈ 29 µM); with Pro. vulgaris GN3027, 1.56 µg/mL (≈ 3.62 µM); in the experiment with Ps. aeruginosa IFO3445 (setting [5]), 50 µg/mL (≈ 116 µM); with Ps. aeruginosa S-68 (setting [6]), 25 µg/mL (≈ 58.1 µM); in the experiment with St. aureus FDA209P (setting [7]) it was 0.78 µg/mL (≈ 1.81 µM). Also, the MIC is 6.25 µg/mL (≈ 14.5 µM) in the experiment with E. coli TK-3* (E. coli TK-3, penicillinase-producing, 10^6 cells per ml, read-out: MIC); 25 µg/mL (≈ 58.1 µM) in the experiment with Kl. pneumoniae Y-4*; 50 µg/mL (≈ 116 µM) in the experiment with Ps. aeruginosa GN3379* (20 h, read-out: MIC); 3.13 µg/mL (≈ 7.27 µM) in the experiment on St. aureus F-137*; 0.2 µg/mL (≈ 0.465 µM) with E. coli GN5482**; 3.13 µg/mL (≈ 7.27 µM) against Pro. vulgaris GN76** (GN76, 20 h). For the same molecule, the MIC with Ps. aeruginosa GN918** (20 h, read-out: MIC) amounted to 12.5 µg/mL (≈ 29 µM).

Take `O=C(O)c1cn(-c2ccc(O)cc2)c(C2CC=CCC2)cc1=O` (centres unmarked): the MIC in the experiment with Aci. antitratus A-6 was 6.25 µg/mL (≈ 20.1 µM); in the experiment on E. coli NIHJ JC-2, 6.25 µg/mL (≈ 20.1 µM); in the experiment on E. coli TK-111 it was 1.56 µg/mL (≈ 5.01 µM); in the experiment with Ent. cloacae IID977, 6.25 µg/mL (≈ 20.1 µM); in the experiment with Kl. pneumoniae Y-41, 6.25 µg/mL (≈ 20.1 µM); with Kl. pneumoniae Y-50 it was 1.56 µg/mL (≈ 5.01 µM). In addition, the MIC against Pro. mirabilis T-111 (T111, 20 h, 10^6 cells per ml) came out at 12.5 µg/mL (≈ 40.1 µM); in the experiment on Pro. morganii T-216 it was 3.13 µg/mL (≈ 10.1 µM); with Pro. vulgaris GN3027 it was 0.39 µg/mL (≈ 1.25 µM); in the experiment on Ps. aeruginosa IFO3445 (IFO3445, 20 h) it was 12.5 µg/mL (≈ 40.1 µM); against Ps. aeruginosa S-68 (S68, 20 h) it was 12.5 µg/mL (≈ 40.1 µM); in the experiment with St. aureus FDA209P, 1.56 µg/mL (≈ 5.01 µM). Also, the MIC in the experiment on E. coli TK-3* worked out at 6.25 µg/mL (≈ 20.1 µM); in the experiment on Kl. pneumoniae Y-4*, 12.5 µg/mL (≈ 40.1 µM); in the experiment with Ps. aeruginosa GN3379* (20 h, read-out: MIC) it was 25 µg/mL (≈ 80.3 µM); with St. aureus F-137* (setting [8]) it was 3.13 µg/mL (≈ 10.1 µM); in the experiment with E. coli GN5482**, 0.39 µg/mL (≈ 1.25 µM); in the experiment on Pro. vulgaris GN76** (GN76, 20 h), 1.56 µg/mL (≈ 5.01 µM). This molecule also displayed an MIC with Ps. aeruginosa GN918** (GN918, 20 h) of 1.56 µg/mL (≈ 5.01 µM).

Regarding `O=C(O)c1cn(-c2ccc(O)cc2F)c(-c2ccc(N3CCCC3)cc2)cc1=O`, the MIC in the experiment with Aci. antitratus A-6 (setting [9]) was at most 0.05 µg/mL; in the experiment with E. coli NIHJ JC-2 (setting [1]), 0.2 µg/mL (≈ 0.507 µM); in the experiment with E. coli TK-111 (setting [2]) it was at most 0.05 µg/mL; with Ent. cloacae IID977 (setting [3]), 0.78 µg/mL (≈ 1.98 µM); in the experiment with Kl. pneumoniae Y-41, 1.56 µg/mL (≈ 3.96 µM); in the experiment with Kl. pneumoniae Y-50, 0.39 µg/mL (≈ 0.989 µM). Further, the MIC in the experiment with Pro. mirabilis T-111 (setting [4]) was 0.78 µg/mL (≈ 1.98 µM); in the experiment with Pro. morganii T-216 it was 0.78 µg/mL (≈ 1.98 µM); in the experiment with Pro. vulgaris GN3027, 0.2 µg/mL (≈ 0.507 µM); in the experiment on Ps. aeruginosa IFO3445 (setting [5]), 6.25 µg/mL (≈ 15.8 µM); in the experiment on Ps. aeruginosa S-68 (S68, 20 h), 3.13 µg/mL (≈ 7.94 µM); in the experiment on St. aureus FDA209P (setting [7]), at most 0.05 µg/mL. In addition, the MIC with Kl. pneumoniae Y-4* is 3.13 µg/mL (≈ 7.94 µM); in the experiment on Ps. aeruginosa GN3379* (GN3379, 20 h), 3.13 µg/mL (≈ 7.94 µM); with St. aureus F-137* (setting [8]), at most 0.05 µg/mL; with E. coli GN5482**, at most 0.05 µg/mL; in the experiment with Pro. vulgaris GN76** (setting [10]), 0.78 µg/mL (≈ 1.98 µM); in the experiment with Ps. aeruginosa GN918** (20 h, read-out: MIC), 0.78 µg/mL (≈ 1.98 µM).

In the case of `O=C(O)c1cn(-c2ccc(O)cc2)c(-c2ccc3occc3c2)cc1=O`, the MIC in the experiment on Aci. antitratus A-6 (setting [9]) is 0.78 µg/mL (≈ 2.25 µM); in the experiment with E. coli NIHJ JC-2 (setting [1]), 0.39 µg/mL (≈ 1.12 µM); in the experiment with E. coli TK-111 (setting [2]) it was 0.2 µg/mL (≈ 0.576 µM); in the experiment on Ent. cloacae IID977 (setting [3]), 0.78 µg/mL (≈ 2.25 µM); in the experiment on Kl. pneumoniae Y-41, 1.56 µg/mL (≈ 4.49 µM); in the experiment on Kl. pneumoniae Y-50, 0.39 µg/mL (≈ 1.12 µM). Further, the MIC against Pro. mirabilis T-111 (T111, 20 h, 10^6 cells per ml) was 3.13 µg/mL (≈ 9.01 µM); with Pro. morganii T-216, 0.78 µg/mL (≈ 2.25 µM); in the experiment on Pro. vulgaris GN3027, at most 0.05 µg/mL; in the experiment with Ps. aeruginosa IFO3445 (setting [5]), 12.5 µg/mL (≈ 36 µM); with Ps. aeruginosa S-68 (setting [6]), 6.25 µg/mL (≈ 18 µM); in the experiment with St. aureus FDA209P (setting [7]) it was 0.2 µg/mL (≈ 0.576 µM). The MIC in the experiment with Kl. pneumoniae Y-4* was 3.13 µg/mL (≈ 9.01 µM); in the experiment with Ps. aeruginosa GN3379* (20 h, read-out: MIC), 6.25 µg/mL (≈ 18 µM); in the experiment with St. aureus F-137* (setting [8]) it was 0.39 µg/mL (≈ 1.12 µM); in the experiment with E. coli GN5482**, at most 0.05 µg/mL; in the experiment with Pro. vulgaris GN76** (setting [10]), 0.78 µg/mL (≈ 2.25 µM); in the experiment on Ps. aeruginosa GN918** (GN918, 20 h) it was 1.56 µg/mL (≈ 4.49 µM).

Source of the values: patent US4698352A, “4-oxo-1,4-dihydronicotinic acid derivatives, salts thereof, and antibacterial agents containing the same” (Toyama Chemical Co., Ltd., priority 1982, dated 1987).
